Assay results as given in patent US20110124683A1, “Use of CRTH2 Antagonist Compounds” (Oxagen Limited, priority 2007, published 2011).
Values belong to the compound of their own block, whether it stands above or below them.

Tests used:
[1] = test system: serum IgE; experiment: Measurement of serum IgE in mild to moderate asthmatics; assay type: in vivo, human
From the text: The effect of the CRTH2 antagonist Compound 1 compared to placebo was studied in mild to moderate asthmatics with an FEV1 of 60-80% of predicted and requiring only short acting inhaled β2-adrenergic agonists for symptomatic control.
Blood was collected for measurement of serum IgE at the beginning of the study and after 4 weeks of dosing with Compound 1 or placebo. Total serum IgE was quantified using fluorescent immunoassay using the Phadia CAP system.

[2] = test system: Human Th2 cells; experiment: Apoptosis challenge test (Annexin V-PE/PI flow cytometry); assay type: cell-based; settings: for IC50: Homo sapiens, 100 nM PGD2, absence of IL-2, 16 hrs, read-out: IC50 to the rescuing function of PGD2
Description: Human Th2 cells were treated with 50 U/ml IL-2 or various concentrations of PGD2 in the absence of IL-2 for 16 hrs. The cells were stained with Annexin V-PE/PI and then analysed by FACSArray flow cytometer.
Human Th2 cells were treated in the absence of IL-2 with a medium containing 100 nM PGD2 and various concentrations of CRTH2 antagonistic compounds (Compounds 1, 2, 3, 4 and 5) for 16 hrs. The cells were stained with Annexin V-PE/PI and then analysed by FACSArray flow cytometer.

[3] = test system: human subjects with allergic rhinitis; experiment: Vienna Challenge Chamber study (allergen challenge, symptom scores); assay type: in vivo; settings: for reduction in total nasal symptom score compared to placebo / reduction in total eye symptom score compared to placebo: oral, both patient groups combined; for reduction in total nasal symptom score compared to placebo: FIG. 1A; for reduction in total eye symptom score compared to placebo: FIG. 1B
From the text: The study was a randomised, double blind, placebo controlled, two way crossover evaluation of Compound 1, given orally for eight days. There was a screening period of one week and a washout period of three weeks between the two treatment periods. There was a follow up one week after the last dose of study drug. The group of patients who received the study drug for the first treatment period and placebo for the second was designated group A, while the group of patients who received placebo for the first treatment period and the study drug for the second treatment period was designated group B.
The subjects underwent a complete screening assessment to determine a baseline response to allergens. This screening assessment took place one week prior to the start of dosing. • Subjects commenced dosing with Compound 1 or placebo on Day 1 (visit 2 or visit 5) of each treatment period of the study. […] Subjects took each dose (2 capsules in the morning and 2 capsules in the evening) as soon as they had finished breakfast and their evening meal respectively.
Subjects reported back to the clinic on Day 2 of each treatment period for a 6 hour allergen challenge. The following measurements were obtained: • Total nasal symptom score (TNSS) (obstruction, rhinorrhoea, itch, sneeze) with each symptom scored on a categorical scale from 0 to 3 pre-challenge, every 15 mins from 0 to 6 h post-start of challenge • Eye symptom score (watery eyes, itchy eyes, red eyes) with each symptom scored on a categorical scale from 0 to 3 pre-challenge, every 15 mins from 0 to 6 h post-start of challenge • Other symptoms (cough, itchy throat, itchy ears) with each symptom scored on a categorical scale from 0 to 3 pre-challenge and every 15 mins from 0 to 6 h post-start of challenge
Subjects reported back to the clinic on Day 8 of each treatment period for a 6 hour allergen challenge and the measurements obtained on Day 2 were repeated.
A final follow-up visit was conducted one after the last dose of test article in Treatment Period 2.

[4] = biological target: T1, CRTH2 receptor (Homo sapiens, UniProt Q9Y5Y4); experiment: Calcium mobilisation assay in CHO/CRTH2 cells; assay type: cell-based; settings: n=3, read-out: EC50, increase in intracellular Ca2+ mobilisation
T1 construct: expressed in transfected cells; host or cells: Chinese Hamster Ovary (CHO) cells
T1 sequence (Q9Y5Y4 1-395): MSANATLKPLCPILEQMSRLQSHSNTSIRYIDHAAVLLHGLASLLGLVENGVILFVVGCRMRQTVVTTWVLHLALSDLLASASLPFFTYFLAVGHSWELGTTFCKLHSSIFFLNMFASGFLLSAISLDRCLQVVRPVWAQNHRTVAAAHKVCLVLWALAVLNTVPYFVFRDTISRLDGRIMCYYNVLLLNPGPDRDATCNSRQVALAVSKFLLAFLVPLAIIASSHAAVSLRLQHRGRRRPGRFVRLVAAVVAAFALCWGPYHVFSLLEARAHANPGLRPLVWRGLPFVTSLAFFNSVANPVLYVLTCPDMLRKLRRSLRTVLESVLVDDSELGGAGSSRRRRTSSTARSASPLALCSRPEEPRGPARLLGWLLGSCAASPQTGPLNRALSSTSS
Description: Chinese Hamster Ovary cells were transfected with CRTH2 receptors (CHO/CRTH2) and were maintained in culture in a humidified atmosphere at 37° C. (5% CO2) in Minimum Essential Medium (MEM) supplemented with 10% foetal bovine serum, 2 mM glutamine, and 1 mg ml^−1 active G418. The cells were passaged every 2-3 days. For radioligand binding assay, cells were prepared in triple-layer flasks or in 175 cm^2 square flasks (for membrane preparation). For calcium mobilisation assay, cells were grown in a 96 well plate 24 h prior to the assay at a density of 80,000 cells per well.
Cells were seeded onto poly-D-lysine coated 96-well plates at a density of 80,000 cells per well and incubated at 37° C. overnight to allow the cells to adhere. Cells were washed twice with HBSS and incubated for 1 h at 37° C. in 100 μl HBSS and 100 μl calcium-3-dye (Molecular Devices), supplemented with 4 mM probenecid. Changes in fluorescence were monitored over a 50 s time course with agonist addition at 17 s using a Flexstation (Molecular Devices).

IC50 [2]: < 100 nM
Compound: Cc1c(Cc2ccc3ccccc3n2)c2cc(F)ccc2n1CC(=O)O [Compound 1, (5-Fluoro-2-methyl-3-quinolin-2-ylmethyl-indol-1-yl)-acetic acid]
median reduction in IgE at endpoint ([1]; after 4 weeks of dosing, p=0.033 vs placebo, Wilcoxon test): −17.0 IU/mL | reduction in serum IgE ([1]; after treatment for 4 weeks, FIG. 3): 41% | duration of effect on nasal symptom score after the last treatment ([3]; Group A, on placebo after 8 days of drug and three week washout): more than 4 weeks | reduction in total nasal symptom score compared to placebo ([3]; after 2 days of dosing): 23% | reduction in total eye symptom score compared to placebo ([3]; after 2 days of dosing): 45% | reduction in total nasal symptom score compared to placebo ([3]; after 8 days of dosing): 37% | reduction in total eye symptom score compared to placebo ([3]; after 8 days of dosing): 61% | reduction in Total Nasal Symptom Score (0-6 hr) ([3]; remaining 22 days after the last dose): 36% | reduction in Total Nasal Symptom Score (0-6 hr) ([3]; remaining 28 days after the last dose): 38%

IC50 [2]: < 100 nM
Compound: Cc1c(Cc2ccccc2S(=O)(=O)c2ccccc2)c2cc(F)ccc2n1CC(=O)O [Compound 2, (3-{[2-(Benzenesulfonyl)phenyl]methyl}-5-fluoro-2-methylindol-1-yl)-acetic acid]

IC50 [2]: < 100 nM
Compound: Cc1c(Cc2cc3ccccc3cc2S(C)(=O)=O)c2cc(F)ccc2n1CC(=O)O [Compound 3, {5-Fluoro-3-[(3-methanesulfonylnaphthalen-2-yl)methyl]-2-methylindol-1-yl}-acetic acid]

IC50 [2]: < 100 nM
Compound: Cc1c(Cc2cccnc2S(=O)(=O)c2ccccc2)c2cc(F)ccc2n1CC(=O)O [Compound 4, (3-{[2-(Benzenesulfonyl)pyridin-3-yl]methyl}-5-fluoro-2-methylindol-1-yl)-acetic acid]

Compound: CCCCC[C@H](O)/C=C/[C@H]1C(=O)C[C@H](O)[C@@H]1C/C=C\CCCC(=O)O [PGD2, prostaglandin D2, reference compound]
effect on apoptosis of Th2 cells ([2]; absence of IL-2, 16 hrs): anti-apoptotic effect | EC50 [4]: 2.4 ± 0.5 nM

IC50 [2]: 204 ± 160 nM
Compound: Cc1c(S(=O)(=O)c2ccc(Cl)cc2)c2cc(F)ccc2n1CC(=O)O [[5-Fluoro-3-(4-chloro-benzenesulfonyl)-2-methyl-indol-1-yl]-acetic acid, reference compound]
